Experimental data from patent US20180251824A1, “IN VITRO GENOTOXICITY ASSAY USING A TRANSCRIPTOMIC BIOMARKER WITH DIRECT DIGITAL COUNTING” (GEORGETOWN UNIVERSITY, priority 2017, published 2018).
Entries after “also recorded” stand apart in the source; their conditions may differ. One block for each compound: values may come before it.

Experiments:
[1] = test system: TGx-DDI biomarker genes in TK6 cells; assay: TGx-DDI transcriptomic biomarker classification by microarray; format: cell-based, human; settings: for TGx-DDI classification by 2DC and/or PCA: DDI branch in 2DC or negative PC1 = DDI; for TGx-DDI prediction by probability analysis (PA): DDI call based on p>0.9; for TGx-DDI classification, overall call (DDI if positive in any of 2DC, PCA, PA): TK6 cells, 4 h, single selected concentration
Excerpt: Microarray procedures: RNA samples from the concentration-setting experiments of each compound at their selected concentrations were pooled together and analyzed using human whole genome expression long-nucleotide probe microarrays (60 nucleotide long, Agilent Technologies) microarray (Li et al., 2015). […] Each experiment was run on two arrays, and on each array both treated and reference (vehicle control) samples were hybridized in a dye-swap design. Specifically, the reference and treatment samples were labeled with two different fluorescence dyes, Cy3 and Cy5, and then both samples were hybridized onto one array. To reduce the effects associated with different labeling efficiencies, a two-color dye-swapping configuration was used. The results from these two arrays were combined for statistical analysis.
TGx-DDI transcriptomic biomarker evaluation: Following the dose determination, microarray analysis was performed for each test compound. RNAs from three replicates in the concentration-setting experiment were pooled together and used for microarray analysis. Cisplatin and ionizing radiation were used in parallel during each experiment as positive controls and to assess batch variation. The TGx-DDI transcriptomic biomarker panel was used to classify each chemical as DDI or non-DDI using two-dimensional clustering (2DC), principal component analysis (PCA), and probability analysis (PA). Hierarchical clustering and PCA were used as an initial unsupervised method to explore the data.
The TGx-DDI heatmap for chemicals in all five classes. PA, PCA, and 2DC results using the TGx-DDI biomarker for validation chemicals were generated. In order to decrease the probability of false negatives, a three-pronged approach was used. A chemical was classified as DDI if it gave a positive call in any one of the TGx-DDI biomarker analyses described in the paragraph above (2DC, PCA or PA prediction).

[2] = test system: TGx-DDI biomarker genes in TK6 cells; assay: TGx-DDI nCounter assay (direct digital counting); settings: 100 ng total RNA, same samples as microarray; 2DC, PCA, PA
Method: Briefly, exponentially growing cells were treated with the indicated chemical agent for 4 h over a broad dose range, cells were harvested, and total RNA was isolated. […] For cell viability assays, at the end of 4 hr treatment, medium was removed from cells, and cells were washed and recovered in fresh medium for 20 hr. Cell viability was measured at the end of recovery period using an MTT Assay kit (Cayman Chemical, Ann Arbor, Mich.).
TGx-DDI nCounter Assay: The nCounter™ assay was performed on 100 ng of RNA that had previously been pooled and used in microarray analysis. […] In brief, optimized sequences for genes in the TGx-DDI panel were custom-designed and manufactured by NanoString. The CodeSet includes the TGx-DDI gene-set and eight housekeeping genes. Housekeeping genes were selected based on stability and detectable expression levels, including G6PD, GUSB, HPRT1, LDHA, NONO, PGK1, PPIH, and TFRC.
To validate the sensitivity and specificity of DDI prediction by TGx-DDI nCounter assay, 38 out of 45 testing compounds, including Class 1, 2, 4 and 5, were evaluated using nCounter technology. nCounter assays were performed on 100 ng of total RNA, the same RNA samples that were used in microarray analysis. Following the categorization guideline described already for microarrays, compounds were classified as DDI or non-DDI based on nCounter assay data.

TK6 cells = assay: MTT cell viability assay; format: cell-based, human; settings: selected concentration, 4 hr treatment plus 20 hr recovery
Method: Dose optimization: For some assays, a sufficient concentration of the test agent is required to trigger a measureable transcriptional response; such concentrations may differ from other toxicological endpoints. Therefore, to determine an appropriate concentration for transcriptomics profiling, a dose-range finder experiment was performed for all test compounds as described in Li et al. (2015). Six concentrations of each agent were used for assessment of mRNA changes in three indicator genes (ATF 3, CDKNIA, and GADD45A) by qRT-PCR. The concentration for each agent showing the strongest induction of the indicator genes was then selected. In addition, concordance of responses in the indicator genes was confirmed prior to pooling samples for microarray analysis. If none of the indicator genes were induced in concentration-setting experiments, the IC50 was selected for the microarray analysis. The IC50 value was determined using a standard MTT assay at 24 hr using 10 concentrations and 3 replicates. Based on this cytotoxicity assay, the selected concentrations for microarray analysis were not overtly cytotoxic for any test agent (FIG. 2). Based on this cytotoxicity assay, the selected doses for microarray analysis were not overtly cytotoxic. […]

[3] = test system: ATF3, CDKN1A and GADD45A expression in TK6 cells; assay: qRT-PCR indicator stress gene panel, dose optimization; format: cell-based, human; settings: for transcriptional response of the indicator genes at a later time point: later than the 4 h time point
Method: Dose optimization: For some assays, a sufficient concentration of the test agent is required to trigger a measureable transcriptional response; such concentrations may differ from other toxicological endpoints. Therefore, to determine an appropriate concentration for transcriptomics profiling, a dose-range finder experiment was performed for all test compounds as described in Li et al. (2015). Six concentrations of each agent were used for assessment of mRNA changes in three indicator genes (ATF 3, CDKNIA, and GADD45A) by qRT-PCR. The concentration for each agent showing the strongest induction of the indicator genes was then selected. In addition, concordance of responses in the indicator genes was confirmed prior to pooling samples for microarray analysis. If none of the indicator genes were induced in concentration-setting experiments, the IC50 was selected for the microarray analysis. The IC50 value was determined using a standard MTT assay at 24 hr using 10 concentrations and 3 replicates. Based on this cytotoxicity assay, the selected concentrations for microarray analysis were not overtly cytotoxic for any test agent (FIG. 2). If there was neither cytotoxicity nor induction of expression changes in the gene panel, a concentration of 1 mM was used for microarray analysis, as per the revised ICHS2(R1) guidance on genotoxicity testing of pharmaceuticals (ICHS2(R1) (2012) Guidance for Industry: S2(R1) Genotoxicity testing and data interpretation for pharmaceuticals intended for human use. US Department of Health and Human Services, Food and Drug Administration http://www.ich.org/fileadmin/Public_Web_Site/ICH_Products/Guidelines/Safety/S2_R1/Step4/S2R1_Step4.pdf). Selection of a single concentration and pooling replicate samples for microarray analysis (described below) is specific to biomarker development and validation, where multiple compounds were used in each class; future application in substance testing should be undertaken using a dose-response design with samples in triplicate (Buick et al., 2017).

Compound: bleomycin
decline (reduction) in cell viability at 24 hr (TK6 cells): 80%

Compound: Nc1nc2[nH]cnc2c(=S)[nH]1 [6-TG]
TGx-DDI classification, overall call (DDI if positive in any of 2DC, PCA, PA) [1]: DDI

Compound: Nc1ncn([C@@H]2O[C@H](CO)[C@@H](O)[C@H]2O)c(=O)n1 [5-azacytidine]
transcriptional response of the indicator genes at a later time point [3]: stronger transcriptional response
TGx-DDI classification, overall call (DDI if positive in any of 2DC, PCA, PA) [1]: non-DDI

Compound: Cc1nc(Nc2ncc(C(=O)Nc3c(C)cccc3Cl)s2)cc(N2CCN(CCO)CC2)n1 [dasatanib]
TGx-DDI classification, overall call (DDI if positive in any of 2DC, PCA, PA) [1]: genotoxic calls

Compound: CCCN(CCc1cccs1)[C@H]1CCc2c(O)cccc2C1 [rotigotin]
induction of indicator genes ATF3, CDKN1A, GADD45A ([3]; TK6 cells, 4 h treatment, selected or tested concentrations): did not induce any of the indicator genes

Compound: O=c1[nH]cc(F)c(=O)[nH]1 [5-FU]
TGx-DDI classification, overall call (DDI if positive in any of 2DC, PCA, PA) [1]: DDI

Compound: COS(C)(=O)=O [MMS]
clustering by 2DC using the TGx-DDI biomarker ([1]; reproducibility check with training-set agents, selected concentration): clustered with the genotoxic agents

Compound: Sc1ncnc2nc[nH]c12 [6-mercaptopurine]
transcriptional response of the indicator genes at a later time point [3]: stronger transcriptional response
TGx-DDI classification, overall call (DDI if positive in any of 2DC, PCA, PA) [1]: non-DDI

Now from value to compound, other results behind:

TGx-DDI classification by 2DC and/or PCA [1]: DDI agents; also recorded: positive
TGx-DDI prediction by probability analysis (PA) [1]: non-DDI
Compound: Oc1ccc(O)cc1 [hydroquinone]
TGx-DDI classification by nCounter [2]: consistency among three classification methods

TGx-DDI classification by 2DC and/or PCA [1]: DDI agents; also recorded: positive
TGx-DDI prediction by probability analysis (PA) [1]: non-DDI
Compound: CS(=O)(=O)OCCCCOS(C)(=O)=O [busulfan]
GADD45A induction relative to vehicle-treated control cells ([3]; TK6 cells, 4 h treatment, selected concentration): at least 2 fold
induction of stress genes at higher concentrations ([3]; concentrations above the selected one): did not cause greater induction
TGx-DDI classification by nCounter [2]: consistency among three classification methods

TGx-DDI classification, overall call (DDI if positive in any of 2DC, PCA, PA) [1]: non-DDI
Compound: CCn1cc(C(=O)O)c(=O)c2cc(F)c(N3CCNCC3)cc21 [norfloxacin]

TGx-DDI classification by 2DC and/or PCA [1]: positive
TGx-DDI prediction by probability analysis (PA) [1]: non-DDI
Compound: CC/C(=C(/CC)c1ccc(O)cc1)c1ccc(O)cc1 [diethylstilbestrol]
TGx-DDI classification, overall call (DDI if positive in any of 2DC, PCA, PA) [1]: genotoxic calls
